Measurements from patent US9193986B2, “Method for marking or immobilising a target structure” (Fraunhofer-Gesellschaft Zur Forderung Der Angewandten …, priority 2012, dated 2015).
Non-standard residues stand in square brackets, D forms with d. Residues, ends and D or L forms follow the SMILES beside them. No end group written: not given here. *: point of attachment. FITC = O=C1OC2(c3ccc(O)cc3Oc3cc(O)ccc32)c2ccc(NC(=S)*)cc21; Dopa = N[CH](Cc1ccc(O)c(O)c1)C(=O)O; X1 = O=C1NC2CSC(CCCCC(=O)*)C2N1

How the values were obtained:
Albumen lysozyme = Albumen lysozyme (Gallus gallus, UniProt P00698); assay: Laccase-mediated coupling of structures with DOPA residue to a protein, MS analysis; assay type: biochemical; conditions: for formation of covalent adduct with lysozyme: equimolar and ten-fold excess, laccase, overnight, room temperature, pH 7.0; for conversion of lysozyme to the adduct: excess of the DOPA compound (ten-fold), FIGS. 5 and 8
Procedure: The following solutions were prepared in 10 mM phosphate buffer pH 7.0: • a) Albumen lysozyme 1 mg/ml, corresponding to 70 μM (solution 1) • b) Compound A (biotin-DOPA) 1 mg in 3 mL, corresponding to 700 μM (solution 2) and a 70 μM dilution (solution 3) • c) Compound B (biotin-RGD-DOPA) 1,2 mg in 2 ml, corresponding to 700 μM (solution 4) and a 70 μM dilution (solution 5) • d) Laccase (Trametes vers., ASA Spezialenzyme GmbH) 1 mg/ml corresponding to 20 u/ml (solution 6)
The reaction was started by mixing 500 μl lysozyme solution (Solution 1) with in each case 500 μl of solution 2 to solution 5 (i.e. in each case equimolar and ten-fold excess) and addition and mixing in 10 μl/0.2 u laccase (solution 6). Lysozyme with 500 μl 10 mM phosphate buffer pH 7.0 and laccase (solution 6) was used as control. The samples were incubated overnight at room temperature and the next day an aliquot was freed from low molecular weight constituents and salts using a desalting column (Micro Bio-Spin P6, BioRad) equilibrated with deionised waters.
The thereby prepared reaction product was analysed in an AB Sciex TOF/TOF™ 5800 system.

[1] = system: cell lines expressing αvβ6 integrin (HUVEC, SVEC, HT1299); assay: Dependence of the binding on the polypeptide concentration (laccase-activated marking, FACS); assay type: cell-based; conditions: different concentrations, FIG. 2
Procedure: (§1) The cells were in each case washed twice with PBS and then taken up in an amount of ca. 10^5 cells/ml in PBS. 950 μl portions of the solution were added to 1-ml-FACS-test tubes. Marked polypeptides with and without prior treatment with laccase, were then added according to the following Table 1.
(§2) For this, 40 μl NaAc solution, 105 μl water, 15 μl peptide solution and 120 μl laccase were added in a typical […] polypeptide batch. Samples without laccase contained the corresponding additional volume of water, samples with other polypeptide concentrations contained correspondingly more polypeptide solution (cf. Example 2). After an incubation time of 1 minute 50 μl were added in each case to the cell suspensions or placed in the FACS test tubes.
(§3) After an incubation time of at least 15 minutes the cells were washed three times with 2 ml PBS in the test tube and the fluorescence of the cells was then measured on a cell sorter. The total fluorescence of the cells was measured.
Corresponding to the above experimental procedure (Example 1) various cell lines, all of which express αvβ6 integrin, were marked with different polypeptide concentrations.

[2] = system: integrin αvβ6 expressing cells (HT1299, SVEC); assay: Marking of integrin αvβ6 expressing cells with DOPA/FITC polypeptide, with and without laccase, FACS fluorescence after washing; assay type: cell-based; conditions: 5 μM polypeptide, without addition of laccase, washed three times with PBS, FIG. 1
Procedure: Marking of integrin αvβ6 expressing cells:
Cell type: Cell lines HT1299 (lung tumor), HUVEC, SVEC
Polypeptide for the marking: Ac-SPRGDLAVLGHK(FITC)GG-DOPA-G, SEQ ID NO: 1
Polypeptide solution: 4 mg/ml polypeptide in water corresponding to 2 mM
20 mg/ml laccase from Trameters versicolor, 20 U/mg, ASA Spezialenzyme GmbH, Wolfenbüttel
All FAC measurements were made on a Cytomics FC500 (Beckman Coulter).
as §1, §2, §3

| Molecule | formation of covalent adduct with lysozyme (Albumen lysozyme) | conversion of lysozyme to the adduct (Albumen lysozyme) | binding to cells as a function of polypeptide concentration [1] | retention of the fluorescent polypeptide on the cells after washing [2] |
| --- | --- | --- | --- | --- |
| NC(=O)C(Cc1ccc(O)c(O)c1)NC(=O)CCCCC1SCC2NC(=O)NC21 (stereo not drawn) [Compound A] | expected reaction products were found | a complete conversion was not achieved |  |  |
| N=C(N)NCCCC(NC(=O)CNC(=O)CCCCC1SCC2NC(=O)NC21)C(=O)NCC(=O)NC(CC(=O)O)C(=O)NC(Cc1ccc(O)c(O)c1)C(=O)NCC(=O)O (stereo not drawn) [Compound B, biotin-RGD-DOPA] (X1-GRGD[Dopa]G-OH; configuration not given here) | expected reaction products were found | a complete conversion was not achieved |  |  |
| Ac-SPRGDLAVLGHK(FITC)GG-DOPA-G (Ac-SPRGDLAVLGHK(FITC)GG[Dopa]G) [polypeptide] |  |  | bind depending on the concentration | can be washed again from the cells |
